Source: article PMC7999182, “Interaction of Remdesivir with Clinically Relevant Hepatic Drug Uptake Transporters” (Pharmaceutics, 2021)

What was measured:
[1] = system: OATP1B3; parameters: method as in earlier work; conditions: prototypic substrate not stated; cited from earlier work
[2] = biological target: T1, OATP1B3 (Homo sapiens, UniProt Q9NPD5); test: Remdesivir uptake into HEK cells stably expressing OATP1B3 vs vector control; assay type: in vitro ADME; conditions: 5 µM remdesivir, 10 min, transporter-expressing vs control HEK cells
T1 construct: expressed in transfected cells
T1 sequence (Q9NPD5 1-702): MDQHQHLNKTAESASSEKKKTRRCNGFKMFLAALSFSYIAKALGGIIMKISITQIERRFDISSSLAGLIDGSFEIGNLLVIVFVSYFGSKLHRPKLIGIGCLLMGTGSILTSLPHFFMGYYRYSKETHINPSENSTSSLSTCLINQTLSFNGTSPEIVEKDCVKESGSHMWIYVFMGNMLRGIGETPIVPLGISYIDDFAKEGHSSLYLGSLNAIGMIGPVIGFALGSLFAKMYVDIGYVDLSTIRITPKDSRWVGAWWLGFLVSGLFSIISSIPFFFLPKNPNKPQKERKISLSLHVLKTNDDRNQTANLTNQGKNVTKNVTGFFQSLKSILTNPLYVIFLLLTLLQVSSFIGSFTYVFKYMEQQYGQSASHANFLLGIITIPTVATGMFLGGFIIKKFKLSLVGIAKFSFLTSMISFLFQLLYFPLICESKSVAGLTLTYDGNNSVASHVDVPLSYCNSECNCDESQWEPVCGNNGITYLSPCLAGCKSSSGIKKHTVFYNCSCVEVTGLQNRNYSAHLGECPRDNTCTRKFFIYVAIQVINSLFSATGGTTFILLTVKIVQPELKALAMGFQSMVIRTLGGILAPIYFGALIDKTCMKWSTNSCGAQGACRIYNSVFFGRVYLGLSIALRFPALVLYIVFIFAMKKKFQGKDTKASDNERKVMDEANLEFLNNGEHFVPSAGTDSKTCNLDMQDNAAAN
Description: (§1) Generation, cultivation and characterization of human embryonic kidney (HEK) cells stably expressing OATP1B1 refseq (=OATP1B1*1a), OATP1B1*1b, OATP1B1*5 and OATP1B1*15 [18], OATP1B3 [19], OATP2B1 [13] and OCT1 [20] have been described previously. OATP1B1 cells were cultivated in minimal essential medium (Life Technologies, Paisley, UK) and OATP1B3, OATP2B1 and OCT1 cells were cultivated in Dulbecco’s modified Eagle medium (Sigma, Darmstadt, Germany). Cultivation media were supplemented with 10% fetal calf serum, 100 U/mL penicillin and 100 µg/mL streptomycin. Cells were grown at 37 °C and 5% CO2. Functionality of the cells was confirmed by measuring uptake of prototypic substrates (see Section 2.3 and supplementary material).
(§2) Uptake assays were conducted at 37 °C according to previously described methods. For this, cells were seeded in 24-well plates (320,000 cells/well) and cultured for 2 days. Cells were then incubated for a further 24 h in culture medium with 5 mM butyrate (OATP1B3, OATP2B1, OCT1) or 10 mM butyrate (OATP1B1) to increase protein levels of recombinant transporters. […]
(§3) Remdesivir was determined by UHPLC-MS-MS analysis on an Agilent 1290 infinity UHPLC system coupled to an Agilent 6495B triple quadrupole mass spectrometer (Agilent, Waldbronn, Germany) similar to a recently published method. […]

[3] = cited from earlier work
[4] = system: vector-transfected control cells; test: Remdesivir accumulation into vector-transfected control HEK cells; assay type: in vitro ADME, human; conditions: 5 µM remdesivir, 10 min
Description: as §1, §2, §3

In the case of `CCC(CC)COC(=O)[C@H](C)N[P@](=O)(OC[C@H]1O[C@@](C#N)(c2ccc3c(N)ncnn23)[C@H](O)[C@@H]1O)Oc1ccccc1` [Remdesivir], the IC50 [1] is listed as 2100 nM, the Remdesivir uptake ratio [2] is listed as 1.5 and the peak plasma concentration ([3]; 30 min after iv administration of 200 mg remdesivir for 30 min) is listed as ~10 µM. The t1/2 [3] was 1 h, the Cmax ([3]; intravenous 100 mg remdesivir, healthy adults) was 3.7 µM and the “Accumulation into control cells” value [4] was “high remdesivir accumulation”.
